Reference: PMC5760849 (2017)

Assays:
[1] = test system: (G4C2)4 RNA G-Q, dual-labelled (RNA, G4) GGGGCCGGGGCCGGGGCCGGGGCC; assay: FRET melting; conditions: Na+ (10 mM sodium cacodylate); pH 7.35; compound 2 μM; screening threshold, exact value only in figure
[2] = test system: (G4C2)4 RNA (CD) (RNA, G4) GGGGCCGGGGCCGGGGCCGGGGCC; assay: CD, induced signal 350–550 nm; conditions: Na+ (10 mM sodium cacodylate); pH 7.35; RNA 1 μM; compound 2 μM

| ΔTm [1] [°C] | binding [2] | Structure (SMILES) |
| --- | --- | --- |
| > 13 | yes | N=C(N)c1ccc(-c2ccc(-c3ccc(-c4ccc(C(=N)N)cn4)o3)o2)nc1 |
| > 13 | yes | N=C(N)c1ccc(-c2ccc(-c3ccc(-c4ccc(C(=N)N)cn4)[se]3)[se]2)nc1 |
| > 13 | yes | N=C(N)c1ccc(-c2ccc(-c3ccc(-c4ccc(C(=N)N)cn4)s3)s2)nc1 |
